Where two headings read alike, the source gives them in different places.
Assays:
[1] = molecular target: T1, Shp1 (Homo sapiens (Human), UniProt P29350); assay: biochemical
[2] = molecular target: Shp2 (Homo sapiens (Human), UniProt Q06124); assay: PTP activity assay (DiFMUP substrate) with GST-Shp2; format: biochemical; details: for IC50: Table II, Shp2
Source text: (§1) All constructs were verified by DNA sequencing.
(§2) Recombinant DEP1 was from Abcam.

[3] = molecular target: T1, Shp1
[4] = molecular target: CD45 (Homo sapiens (Human), UniProt P08575); assay: PTP activity assay (DiFMUP substrate) with recombinant CD45; format: biochemical; details: CD45, in vitro
[5] = molecular target: PTP1B (Homo sapiens (Human), UniProt P18031); assay: PTP activity assay (DiFMUP substrate) with GST-PTP1B; format: biochemical; details: in vitro
Source text: as §1, §2

[6] = molecular target: DEP1 (Homo sapiens (Human), UniProt Q12913); assay: PTP activity assay (DiFMUP substrate) with recombinant DEP1; format: biochemical; details: DEP1, in vitro
[7] = system: Gab1 tyrosine phosphorylation and Gab1-Shp2 association; assay: EGF-induced Gab1 tyrosine phosphorylation and Gab1-Shp2 association in HEK293 cells; format: cell-based; details: 20 μM, 3 h, EGF 5 ng/ml 5 min
Method: . Gab1 was immunoprecipitated from cell lysate supernatants. Immunoprecipitates were analyzed by immunoblotting with antibodies to phosphotyrosine (pY), Gab1, or Shp2. An aliquot of each cell lysate supernatant (30 μg) was also examined by immunoblotting with an antibody to Shp2 (bottom panel). pY-Gab1, tyrosine-phosphorylated Gab1.
Shp2 is activated in EGF-stimulated cells by binding to tyrosine-phosphorylated Gab1 (and Gab2 if it is also expressed) (Cunnick et al., 2001). […] . […] . […] .

[8] = molecular target: LAR (Homo sapiens (Human), UniProt P10586); assay: PTP activity assay (DiFMUP substrate) with LAR D1 domain; format: biochemical; details: in vitro
LAR, sequence (P10586 1352-1607): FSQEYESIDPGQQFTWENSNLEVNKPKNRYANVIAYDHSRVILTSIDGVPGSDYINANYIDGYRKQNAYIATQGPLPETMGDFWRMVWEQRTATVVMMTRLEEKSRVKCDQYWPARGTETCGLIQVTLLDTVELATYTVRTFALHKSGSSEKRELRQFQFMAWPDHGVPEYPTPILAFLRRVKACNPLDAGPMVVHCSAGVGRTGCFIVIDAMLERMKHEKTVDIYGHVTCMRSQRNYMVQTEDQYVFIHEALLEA

Shp2, sequence (Q06124 205-593): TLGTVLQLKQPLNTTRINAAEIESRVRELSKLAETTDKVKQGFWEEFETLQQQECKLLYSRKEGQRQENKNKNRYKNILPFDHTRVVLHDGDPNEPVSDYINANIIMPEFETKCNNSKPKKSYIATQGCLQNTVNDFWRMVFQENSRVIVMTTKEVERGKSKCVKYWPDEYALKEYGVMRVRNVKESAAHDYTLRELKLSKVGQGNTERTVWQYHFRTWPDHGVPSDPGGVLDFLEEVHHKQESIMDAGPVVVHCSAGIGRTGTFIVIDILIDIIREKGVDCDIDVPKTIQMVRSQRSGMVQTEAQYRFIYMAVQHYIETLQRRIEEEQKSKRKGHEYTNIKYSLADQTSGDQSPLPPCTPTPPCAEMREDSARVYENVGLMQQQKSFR
T1 sequence (P29350 203-595): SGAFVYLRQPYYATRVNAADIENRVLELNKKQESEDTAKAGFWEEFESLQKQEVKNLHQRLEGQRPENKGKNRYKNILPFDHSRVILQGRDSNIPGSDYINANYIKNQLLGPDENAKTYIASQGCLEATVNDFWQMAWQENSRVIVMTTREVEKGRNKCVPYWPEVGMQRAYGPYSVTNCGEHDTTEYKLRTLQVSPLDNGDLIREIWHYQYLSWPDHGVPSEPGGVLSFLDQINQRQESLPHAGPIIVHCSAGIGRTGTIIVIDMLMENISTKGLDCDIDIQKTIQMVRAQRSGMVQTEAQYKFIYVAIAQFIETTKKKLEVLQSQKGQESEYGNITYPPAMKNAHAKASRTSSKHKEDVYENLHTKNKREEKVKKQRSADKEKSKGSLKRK
CD45, sequence (P08575 609-1306): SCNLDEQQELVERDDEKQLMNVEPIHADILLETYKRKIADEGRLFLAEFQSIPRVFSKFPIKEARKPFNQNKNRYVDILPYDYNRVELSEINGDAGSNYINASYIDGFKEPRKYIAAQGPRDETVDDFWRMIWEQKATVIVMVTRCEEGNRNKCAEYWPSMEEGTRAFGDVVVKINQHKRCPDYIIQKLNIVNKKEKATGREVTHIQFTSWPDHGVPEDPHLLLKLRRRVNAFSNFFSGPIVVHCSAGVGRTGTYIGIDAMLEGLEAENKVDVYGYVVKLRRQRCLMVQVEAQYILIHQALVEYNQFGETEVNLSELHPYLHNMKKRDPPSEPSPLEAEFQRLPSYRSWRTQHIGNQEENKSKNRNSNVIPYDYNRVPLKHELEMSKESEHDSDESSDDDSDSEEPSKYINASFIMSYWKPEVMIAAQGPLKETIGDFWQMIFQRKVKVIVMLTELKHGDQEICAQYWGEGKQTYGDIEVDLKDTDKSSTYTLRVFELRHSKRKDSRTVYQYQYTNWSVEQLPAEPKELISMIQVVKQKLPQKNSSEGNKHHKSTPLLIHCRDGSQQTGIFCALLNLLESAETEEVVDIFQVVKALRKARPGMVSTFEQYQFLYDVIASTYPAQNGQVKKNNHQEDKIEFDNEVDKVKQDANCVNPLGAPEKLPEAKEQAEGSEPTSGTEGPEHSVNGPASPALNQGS
DEP1, sequence (Q12913 36-1337): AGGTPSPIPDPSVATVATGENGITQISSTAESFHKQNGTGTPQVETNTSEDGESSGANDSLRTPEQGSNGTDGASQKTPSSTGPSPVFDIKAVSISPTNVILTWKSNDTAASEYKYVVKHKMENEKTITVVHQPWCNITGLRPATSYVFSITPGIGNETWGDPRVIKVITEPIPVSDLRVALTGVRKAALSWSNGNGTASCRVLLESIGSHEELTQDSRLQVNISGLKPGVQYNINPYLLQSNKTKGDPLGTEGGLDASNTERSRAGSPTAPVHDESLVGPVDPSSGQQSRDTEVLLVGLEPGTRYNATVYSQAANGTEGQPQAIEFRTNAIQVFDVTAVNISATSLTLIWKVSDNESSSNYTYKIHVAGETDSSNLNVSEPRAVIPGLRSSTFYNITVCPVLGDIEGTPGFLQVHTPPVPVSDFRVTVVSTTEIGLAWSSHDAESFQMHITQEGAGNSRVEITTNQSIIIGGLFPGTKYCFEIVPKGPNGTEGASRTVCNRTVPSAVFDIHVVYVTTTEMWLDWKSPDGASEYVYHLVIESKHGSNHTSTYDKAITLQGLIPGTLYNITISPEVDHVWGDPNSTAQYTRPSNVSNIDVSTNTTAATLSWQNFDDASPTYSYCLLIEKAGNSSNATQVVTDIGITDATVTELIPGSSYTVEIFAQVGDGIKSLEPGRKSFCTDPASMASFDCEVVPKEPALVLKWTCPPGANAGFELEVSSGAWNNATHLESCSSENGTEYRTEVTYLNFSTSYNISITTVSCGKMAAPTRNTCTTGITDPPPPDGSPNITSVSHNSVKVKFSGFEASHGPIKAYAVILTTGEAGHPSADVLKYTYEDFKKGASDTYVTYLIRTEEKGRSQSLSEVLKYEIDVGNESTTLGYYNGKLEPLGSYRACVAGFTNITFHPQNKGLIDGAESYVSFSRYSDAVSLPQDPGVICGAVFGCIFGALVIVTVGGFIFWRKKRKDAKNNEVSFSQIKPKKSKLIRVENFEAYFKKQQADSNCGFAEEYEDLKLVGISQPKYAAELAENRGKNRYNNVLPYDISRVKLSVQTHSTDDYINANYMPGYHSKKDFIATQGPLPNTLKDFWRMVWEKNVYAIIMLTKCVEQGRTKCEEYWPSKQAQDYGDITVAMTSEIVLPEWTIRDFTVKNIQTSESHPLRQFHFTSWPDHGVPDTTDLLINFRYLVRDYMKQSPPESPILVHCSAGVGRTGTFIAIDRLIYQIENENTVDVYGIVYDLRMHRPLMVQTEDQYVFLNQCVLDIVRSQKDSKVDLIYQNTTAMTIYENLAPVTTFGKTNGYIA
PTP1B, sequence (P18031 whole entry): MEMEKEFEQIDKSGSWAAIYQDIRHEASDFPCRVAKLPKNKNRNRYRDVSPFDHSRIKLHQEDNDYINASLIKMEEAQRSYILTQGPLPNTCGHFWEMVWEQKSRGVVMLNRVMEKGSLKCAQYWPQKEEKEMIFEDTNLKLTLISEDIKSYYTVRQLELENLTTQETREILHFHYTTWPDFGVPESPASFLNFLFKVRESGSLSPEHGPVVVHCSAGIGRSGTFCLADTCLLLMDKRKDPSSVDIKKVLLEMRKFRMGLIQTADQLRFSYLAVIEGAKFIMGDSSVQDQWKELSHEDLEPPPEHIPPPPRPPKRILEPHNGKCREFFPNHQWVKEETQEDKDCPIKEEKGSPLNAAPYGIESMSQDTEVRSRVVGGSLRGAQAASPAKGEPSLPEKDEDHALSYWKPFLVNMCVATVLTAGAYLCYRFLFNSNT

| Structure (SMILES) | % PTP activity ([2]; at 20 μM) | % PTP activity ([2]; concentration not given) | also measured |
| --- | --- | --- | --- |
| O=C1Nc2ccc(C(=O)O)cc2/C1=N/Nc1ccccc1C(=O)O [HL2-052-2] | 46 ± 3% (2) at 20 μM | – | IC50 [1]: 21.4 µM |
| O=C1Nc2ccc(S(=O)(=O)O)cc2/C1=N/Nc1ccccc1[N+](=O)[O-] [HL1-056] | – | 86 ± 3% (6) | IC50 [3]: 68.1 µM |
| O=C1Nc2ccc(C(=O)NCc3ccc(Cl)cc3)cc2/C1=N/Nc1cccc(C(=O)O)c1 [HL2-070-5] | 62.32% (1) at 20 μM | – | IC50 [3]: 19.4 µM |
| CC(C)NS(=O)(=O)c1ccc2c(c1)/C(=N/Nc1ccccc1C(=O)O)C(=O)N2 [RPM186, 2-[N′-(5-Isopropylsulfamoyl-2-oxo-1,2-dihydro-indol-3-ylidene)-hydrazino]benzoic acid] | 0.8 ± 1% (3) at 20 μM | – | IC50 [1]: 10.8 µM |
| CC(C)NS(=O)(=O)c1ccc2c(c1)/C(=N/Nc1cccc(C(=O)O)c1)C(=O)N2 [RPM297, 3-[N′-(5-Isopropylsulfamoyl-2-oxo-1,2-dihydro-indol-3-ylidene)hydrazino]benzoic acid] | 54 ± 8% (2) At 20 μM | – | IC50 [3]: 15.7 µM |
| O=C1Nc2ccc(S(=O)(=O)NCc3ccc(Cl)cc3)cc2/C1=N/Nc1ccccc1[N+](=O)[O-] [RPM139, 3-[(2-Nitrophenyl)hydrazono]-2-oxo-2,3-dihydro-1H-indole-5-sulfonic acid 4-chlorobenzylamide] | – | 12 ± 5% (12) | IC50 [1]: 42.2 µM |
| NS(=O)(=O)c1ccc2c(c1)/C(=N/Nc1ccccc1[N+](=O)[O-])C(=O)N2 [RPM134, 3-[(2-Nitrophenyl)hydrazono]-2-oxo-2,3-dihydro-1H-indole-5-sulfonicamide] | – | 13 ± 5% (12) | IC50 [1]: 93.5 µM |
| CC(C)NS(=O)(=O)c1ccc2c(c1)/C(=N/Nc1ccccc1[N+](=O)[O-])C(=O)N2 [RPM169, 3-[(2-Nitrophenyl)hydrazono]-2-oxo-2,3-dihydro-1H-indole-5-sulfonic acid isopropylamide] | – | 8 + 3% (12) | IC50 [1]: 110 µM |
| O=C1Nc2ccc(C(=O)O)cc2/C1=N/Nc1cccc(C(=O)O)c1 [HL2-052-3] | 56.94% (1) at 20 μM | – | IC50 [3]: 72.5 µM |
| O=S(=O)(O)c1ccc2cc(/N=N\c3cc(S(=O)(=O)O)c4cccnc4c3O)ccc2c1 [NSC-87877, 8-hydroxy-7-(6-sulfonaphthalen-2-yl)diazenyl-quinoline-5-sulfonic acid] | – | – | IC50 [4]: 84.5 ± 16.2 µM; IC50 [5]: 1.69 ± 0.407 µM; IC50 [6]: 65.6 ± 4.12 µM; IC50 [1]: 0.355 µM; EGF-stimulated Gab1 tyrosine phosphorylation [7]: did not inhibit; binding of Shp2 to Gab1 [7]: did not inhibit; IC50 [8]: 151 ± 9.08 µM |
| CNC(=O)c1ccccc1N/N=C1\C(=O)Nc2ccc(S(=O)(=O)NC(C)C)cc21 [RPM295, 2-[N′-(5-Isopropylsulfamoyl-2-oxo-1,2-dihydro-indol-3-ylidene)hydrazino]-N-methylbenzamide] | 43 ± 2% (2) At 20 μM | – | – |
| CC(C)NS(=O)(=O)c1ccc2c(c1)/C(=C/Nc1cccc(C(=O)O)c1)C(=O)N2 [RPM304, 3-[(5-Isopropylsulfamoyl-2-oxo-1,2-dihydro-indol-3-ylidenemethyl)amino]benzoic acid] | 82.31% (1) At 20 μM | – | IC50 [2]: 33 to 100 µM |
| COC(=O)c1cc(NC(=O)c2ccc3cc(C(=O)OC)ccc3c2)cc(C(=O)OC)c1 [HL2-026-Intermediate] | – | 40 ± 4% (6) | IC50 [2]: 33 to 100 µM |
| CC(C)NS(=O)(=O)c1ccc2c(c1)/C(=N/Nc1cccc(C(=O)NCCN3CCOCC3)c1)C(=O)N2 [RPM334, 3-[N′-(5-Isopropylsulfamoyl-2-oxo-1,2-dihydro-indol-3-ylidene)hydrazino]-N-(2-morpholin-4-yl-ethyl)benzamide] | 39 ± 5% (2) at 20 μM | – | – |
| COC(=O)c1ccc2cc(C(=O)Nc3ccc(C(=O)O)cc3)ccc2c1 [RPM185] | 71 ± 3% (3) at 20 uM | – | – |
| O=C1Nc2ccc(S(=O)(=O)O)cc2/C1=N/Nc1nc2ccccc2s1 [HL1-058-3] | – | 46 ± 4% (3) | IC50 [2]: 33 to 100 µM |
| CC(C)NS(=O)(=O)c1ccc2c(c1)/C(=N/Nc1ccccc1C(N)=O)C(=O)N2 [RPM283, 2-[N′-(5-Isopropylsulfamoyl-2-oxo-1,2-dihydro-indol-3-ylidene)hydrazino]benzamide] | 52 ± 7% (2) At 20 μM | – | – |
| CN(C)CCCNS(=O)(=O)c1ccc2c(c1)/C(=N/Nc1ccccc1[N+](=O)[O-])C(=O)N2 [HL2-016-21] | – | 77 ± 2% (6) | – |
| COC(=O)c1ccccc1/C=C1\C(=O)Nc2ccc(S(=O)(=O)NC(C)C)cc21 [RPM347, 2-(5-Isopropylsulfamoyl-2-oxo-1,2-dihydro-indol-3-ylidenemethyl)benzoic acid methyl ester] | 48 ± 9% (2) At 20 μM | – | – |
| CC(C)NS(=O)(=O)c1ccc2c(c1)/C(=N/Nc1ccccc1C(=O)NCc1ccco1)C(=O)N2 [RPM292, N-Furan-2-ylmethyl-2-[N′-(5-isopropylsulfamoyl-2-oxo-1,2-dihydro-indol-3-ylidene)hydrazino]benzamide] | 47 ± 7% (20 At 20 μM | – | IC50 [2]: 33 to 100 µM |
| O=C(O)c1cccc(NC(=O)c2ccc3cc(C(=O)O)ccc3c2)c1 [HL2-022-1] | – | 53 ± 4% (6) | – |
| CCOC(=O)c1cccc(NC(=O)c2ccc3cc(C(=O)OC)ccc3c2)c1 [HL2-022-1-Intermediate] | – | 68 ± 20% (7) | – |
| COc1ccc(CNS(=O)(=O)c2ccc3c(c2)/C(=N/Nc2ccccc2Cl)C(=O)N3)cc1 [HL2-016-3] | – | 84 ± 24% (6) | – |
| O=C1Nc2ccc(S(=O)(=O)O)cc2/C1=N/Nc1ccccc1F [RPM220, 2-Oxo-3-[(2-fluorophenylhydrazono)]-2,3-dihydro-1H-indole-5-sulfonic acid] | 73 ± 10% (3) at 20 μM | – | – |
| O=C1Nc2ccc(S(=O)(=O)NCc3ccc(Cl)cc3)cc2/C1=C/Nc1ccccc1[N+](=O)[O-] [RPM310] | 66.20% (1) At 20 μM | – | – |
| CNC(=O)c1cccc(N/N=C2\C(=O)Nc3ccc(S(=O)(=O)NC(C)C)cc32)c1 [RPM330, 3-[N′-(5-Isopropylsulfamoyl-2-oxo-1,2-dihydro-indol-3-ylidene)hydrazino]-N-methylbenzamide] | 47 ± 1% (2) at 20 μM | – | – |
| O=C1Nc2ccc(S(=O)(=O)NCc3cccs3)cc2/C1=N/Nc1ccccc1[N+](=O)[O-] [RPM140, 3-[(2-Nitrophenyl)hydrazono]-2-oxo-2,3-dihydro-1H-indole-5-sulfonic acid (thiophen-2-ylmethyl)amide] | – | 37 ± 4% (6) | – |
| CN(C)CCCNS(=O)(=O)c1ccc2c(c1)/C(=N/Nc1ccccc1Cl)C(=O)N2 [HL2-016-22] | – | 80 ± 0.7% (6) | – |
| CCCNS(=O)(=O)c1ccc2c(c1)/C(=N/Nc1ccccc1[N+](=O)[O-])C(=O)N2 [RPM170, 3-[(2-Nitrophenyl)-hydrazono]-2-oxo-2,3-dihydro-1H-indole-5-sulfonic acid propylamide] | – | 43 ± 8% (12) | – |

Source: patent US8987474B2 (University of South Florida, priority 2006, dated 2015)
